Series [1] relates to HIV-1 (IIIB) in MT-4 cells. Briefly: HIV MT-4 antiviral assay. The series is classed as cell-based. The conditions noted are these: Human immunodeficiency virus 1, MT4, 120 h, 5 days, Cell Titer Glo. The procedure: Example 47: HIV MT-4 Antiviral and Cytotoxicity Assay
Antiviral Assay in MT-4 Cells
(§1) Compounds were tested in a high-throughput 384-well assay format for their ability to inhibit the replication of HIV-1 (IIIB) in MT-4 cells. Compounds were serially diluted (1:3) in DMSO on 384-well polypropylene plates and further diluted 200-fold into complete RPMI media (10% FBS, 1% P/S) using the Biotek Micro Flow and Labcyte ECHO acoustic dispenser. Each plate contained up to 8 test compounds, with negative (No Drug Control) and 5 μM AZT positive controls. MT-4 cells were pre-infected with 10 μL of either RPMI (mock-infected) or a fresh 1:250 dilution of HIV-1 IIIB concentrated virus stock. Infected and uninfected MT-4 cells were further diluted in complete RPMI media and added to each plate using a Micro Flow dispenser. After 5 days incubation in a humidified and temperature controlled incubator (37° C.), Cell Titer Glo (Promega) was added to the assay plates and chemiluminescence read using an Envision plate-reader. EC50 values were defined as the compound concentration that causes a 50% decrease in luminescence signal, and were calculated using a sigmoidal dose-response model to generate curve fits.

Series [2] is described as follows: Cytotoxicity assay in MT-4 cells. In kind it is cell-based. The following applies: human, uninfected MT-4 cells, Cell Titer Glo. The procedure:
as §1, with “fits. Cytotoxicity Assay in MT-4 Cells Assays were performed as above except uninfected MT-4 cells were added to each well containing test compound. In addition, 10 μM puromycin was added to the last column of each assay plate to assess a base level of cytotoxicity.” for “fits.”

A short description of series [3]: High throughput microsomal stability assay (human liver microsomes). The following applies: for HLM stability: human liver microsomes, 1 uM compound, NADPH + UDPGA cofactors, 37 C. In kind it is in vitro ADME. Here is the method: Example 49: High Throughput Microsomal Stability Assay
Metabolic stability of compounds was assessed using Human, or Rat Liver Microsomal assays (Corning). In this assay, 10 nL compounds at concentration of 1 mM in 100% DMSO were dispensed into 384-well polypropylene plates using the Echo 550 acoustic liquid dispenser (Labcyte®). Each plate contained 384 wells with a single test compound in each well.
A solution of human (Corning® Gentest™ Human Mixed Pooled Microsomes), or rat (Corning® Gentest™ Rat [Sprague-Dawley] Pooled Liver Microsomes) liver microsomes at 2 mg/ml in 100 mM K2HPO4/KH2PO4 pH 7.4 with Alamethicin from Trichoderma viride (Sigma-Aldrich) 0.0225 mg/ml were incubated on ice for 15 minutes. 5 uL of this solution was added to individual wells following 15 minute incubation at room temperature; and supplemented with 5 uL NADPH Regenerating Solution of cofactors (Corning® Gentest™ UGT Reaction Mix) containing 100 mM K2HPO4/KH2PO4 pH 7.4, 2.6 mM NADP+, 6.6 mM glucose-6-phosphate, 6.6 mM MgCl2, 0.8 U/mL glucose-6-phosphate dehydrogenase, 0.1 mM Sodium Citrate, 6.8 mM uridine diphosphate-glucuronic acid. Final concentration of analyte compounds at the beginning of the reaction was 1 uM. The reactions were incubated at 37° C. and time points of 0, 5, 15, 30, 40, 50, 60, and 70 minutes were collected for further analysis. Background data were collected using reactions without analyte compounds.
Upon collection of the reaction time points, samples were quenched with 30 uL of a solution of 72% acetonitrile, 8% methanol, 0.1% formic acid, 19.9% water, and internal standard (IS). Reaction plates were span in a centrifuge at speed of 4,000 rcf for 30 minutes and 4° C., following a dilution of the 10 uL quenched reaction into 40 uL de-ionized water, yielding assay plates.
Assay plates were analyzed using solid-state extraction coupled with quadrupole time-of-flight mass spectrometer, using Agilent QToF 6530 RapidFire 360 system, with C4 type A solid state cartridges. Analysis was performed in either positive or negative ionization modes. Mobile phases contained 0.1% formic acid in water for loading analytes onto solid state extraction cartridges, and 0.1% formic acid in acetonitrile for elution into mass spectrometer in positive ionization mode, or 0.1% acetic acid in water for loading and 0.1% acetic acid in acetonitrile for extraction in negative ionization mode. Peak-area ratios of integrated counts for individual compounds to IS were plotted as semi-logarithmic chart of log vs time. Initial, linear portion of decay was fitted to a linear regression equation to derive half time of a compound decay.
Pharmacological parameters for an analyte compound metabolism were calculated using the following equations: […]
Where. Calculation of In Vitro Intrinsic Clearance
Concentration refers to the protein concentration (mg/mL) in the reaction.
Calculation of In Vivo Intrinsic Clearance
This scales the in vitro intrinsic clearance up to the value that would be predicted for the entire mass of liver tissue (but with no restriction by blood flow). The value depends upon the size of the liver (species-dependent) and the yield of microsomal protein as appropriate (assumed to be species-independent).
Calculation of Predicted Clearance
Hepatic clearance will depend upon the inter-relationship of intrinsic clearance and hepatic blood flow and can be predicted from in vitro data using a variety of approaches.
Calculation of Hepatic Extraction
This is simply the predicted clearance expressed as a proportion of hepatic blood flow. E=CL/QH*100%
Intrinsic clearance of the instant compounds, as well as for reference compounds A-F, were calculated following the procedure above.
Background: Liver microsomes are a subcellular fraction often used to study metabolism.

The subject of series [4] is pLai RLuc reporter virus in MT-4 cells. Kind of series: HIV MT-4 serum shift antiviral reporter assay. In kind it is cell-based. The conditions noted are these: Human immunodeficiency virus 1, MT4, 72 h, read-out: RLUC CCM. The procedure: Example 48: HIV MT-4 Serum Shift Antiviral Reporter Assay
To quantify the amount of protein binding to human serum, compounds were serially diluted (1:3) in DMSO and acoustically transferred onto 384-well assay plates via a Labcyte ECHO robot. Each plate contained up to 8 test compounds, including negative and positive controls, (DMSO, 5 μM AZT respectively). Assay plates were prepared in duplicate, and tested in either CCM (cell culture media) or HS/CCM (human serum/cell culture media). MT-4 cells were first pre-infected with pLai RLuc reporter virus for 2 h at 37° C., then further diluted in either CCM (RPMI media, 10% FBS, 1% P/S) or HS/CCM (RPMI media, 10% FBS, 50% HS, 1% P/S), and subsequently added to each plate using a Biotek Micro Flow dispenser. After a 72-h incubation in a humidified and temperature controlled incubator (37° C.), Renilla Glo (Promega) was added to all assay plates and chemiluminescence read using an Envision plate-reader. EC50 values were defined as the compound concentration that causes a 50% decrease in luminescence signal, and were calculated using a sigmoidal dose-response model to generate curve fits. To determine the amount of protein binding, EC50 fold shifts (or EC50 shifts) were calculated by dividing EC50 (HS/CCM)/EC50 (CCM). […]

Broadly, the CC50 is the concentration at which the toxic effect on the cells reaches its halfway point. High values mean lower toxicity to the cells, low ones greater toxicity to the cells.

For `C[C@@H]1CC[C@](C)(O)[C@H]2CN1C(=O)c1c(O)c(=O)c(C(=O)NCc3ccc(F)cc3F)cn12` (single isomer, unassigned) [Example 35], the EC50 turned out to be 3.2 nM in series [1] and 1.45 nM in series [4]. In series [2], the midpoint of cytotoxicity, the CC50 at 5 days, lay at 11700 nM. Further, the HLM stability in series [3] stood at 10.3 mL/min/kg.

In the case of `C[C@H]1C=C[C@H](OC(F)F)[C@H]2CN1C(=O)c1c(O)c(=O)c(C(=O)NCc3c(F)cc(F)cc3F)cn12` [Example 22, (3S,6S,7R)-6-(difluoromethoxy)-12-hydroxy-3-methyl-1,11-dioxo-N-(2,4,6-trifluorobenzyl)-1,6,7,11-tetrahydro-3H-2,7-methanopyrido[1,2-a][1,4]diazonine-10-carboxamide], the EC50 in series [1] was 1.7 nM. The cytotoxic concentration (CC50) at 5 days in series [2] is 8910 nM. Moreover, the HLM stability in series [3] stood at 14 mL/min/kg.

For `C[C@H]1C=C[C@@H](Cl)[C@H]2CN1C(=O)c1c(O)c(=O)c(C(=O)NCc3ccc(F)cc3F)cn12` [Example 13, (3S,6R,7R)-6-chloro-N-(2,4-difluorobenzyl)-12-hydroxy-3-methyl-1,11-dioxo-1,6,7,11-tetrahydro-3H-2,7-methanopyrido[1,2-a][1,4]diazonine-10-carboxamide], the results for the EC50 in series [1] and in series [4] were 1.5 nM and 0.55 nM, respectively. This compound also returned a CC50 at 5 days in series [2] of 15600 nM. Besides, the “MS Cl improvement” value in series [3] was 1.5 times relative to compound E. Further, the HLM stability in series [3] was found to be 4.33 mL/min/kg.

On to `CO[C@@H]1CC(F)(F)[C@H](C)N2C[C@H]1n1cc(C(=O)NCc3c(F)cc(F)cc3F)c(=O)c(O)c1C2=O` (single isomer, unassigned) [Example 36], for which the values for the EC50 in series [1] and in series [4] were 2.6 nM and 0.33 nM, respectively. For the same compound, the CC50 at 5 days in series [2] is 27300 nM. For the same compound, in series [3], the HLM stability is 3.3 mL/min/kg.

With `C[C@H]1CC[C@@H](O)[C@H]2CN1C(=O)c1c(O)c(=O)c(C(=O)NCc3c(F)cc(F)cc3F)cn12` [Example 5, (3S,6R,7R)-6,12-dihydroxy-3-methyl-1,11-dioxo-N-(2,4,6-trifluorobenzyl)-1,4,5,6,7,11-hexahydro-3H-2,7-methanopyrido[1,2-a][1,4]diazonine-10-carboxamide], the EC50 in series [1] worked out at 1.8 nM; in series [4] it was 0.71 nM. The compound further had a CC50 at 5 days in series [2] of 50000 nM. In series [3], the HLM stability turned out to be 3.33 mL/min/kg.

On to `CO[C@H]1C=C[C@H](C)N2C[C@H]1n1cc(C(=O)NCc3ccc(F)c(Cl)c3F)c(=O)c(O)c1C2=O` [Example 9, (3S,6S,7R)—N-(3-chloro-2,4-difluorobenzyl)-12-hydroxy-6-methoxy-3-methyl-1,11-dioxo-1,6,7,11-tetrahydro-3H-2,7-methanopyrido[1,2-a][1,4]diazonine-10-carboxamide], for which the values for the EC50 in series [1] and in series [4] were 1 nM and 0.42 nM, respectively. Besides, in series [2], the CC50 at 5 days amounted to 4270 nM. The HLM stability in series [3] is 8 mL/min/kg.

With `C[C@H]1C=C[C@H](O)[C@H]2CN1C(=O)c1c(O)c(=O)c(C(=O)NCc3ccc(F)cc3F)cn12` [Example 20, (3S,6S,7R)—N-(2,4-difluorobenzyl)-6,12-dihydroxy-3-methyl-1,11-dioxo-1,6,7,11-tetrahydro-3H-2,7-methanopyrido[1,2-a][1,4]diazonine-10-carboxamide], the EC50 in series [1] is 2.8 nM. The same compound displayed a CC50 at 5 days in series [2] of 30000 nM. The HLM stability in series [3] was 1.83 mL/min/kg.

For the compound `[2H]C([2H])([2H])[C@]1(O)C=C[C@H](C)N2C[C@H]1n1cc(C(=O)NCc3ccc(F)cc3F)c(=O)c(O)c1C2=O` [Example 30, (1R,10S,13S)—N-[(2,4-difluorophenyl)methyl]-6,13-dihydroxy-10-methyl-5,8-dioxo-13-(trideuteriomethyl)-2,9-diazatricyclo[7.4.1.02,7]tetradeca-3,6,11-triene-4-carboxamide], in series [1], the EC50 was found to be 2.1 nM. For the same compound, the CC50 at 5 days in series [2] turned out to be 7480 nM. Further, the HLM stability in series [3] was determined as 1.83 mL/min/kg.

The compound `C[C@H]1C=C[C@H](O)[C@H]2CN1C(=O)c1c(O)c(=O)c(C(=O)NCc3c(F)cc(F)cc3F)cn12` [Example 14, (3S,6S,7R)-6,12-dihydroxy-3-methyl-1,11-dioxo-N-(2,4,6-trifluorobenzyl)-1,6,7,11-tetrahydro-3H-2,7-methanopyrido[1,2-a][1,4]diazonine-10-carboxamide] gave an EC50 in series [1] of 4.2 nM. This compound came in with a CC50 at 5 days in series [2] of 50000 nM. The HLM stability in series [3] amounted to 2.67 mL/min/kg.

The compound `CO[C@@]1(C)C=C[C@H](C)N2C[C@H]1n1cc(C(=O)NCc3c(F)cc(F)cc3F)c(=O)c(O)c1C2=O` (single isomer, unassigned) [Example 24] displayed an EC50 in series [1] of 2.2 nM. Also, the CC50 at 5 days in series [2] came out at 11100 nM. In addition, the HLM stability in series [3] turned out to be 11.5 mL/min/kg.

Values taken from patent US12421235B2, “Bridged tricyclic carbamoylpyridone compounds and uses thereof” (Gilead Sciences, Inc., priority 2020, dated 2025).
